{"source": "paper PMC11591356", "about": "“Immunomodulatory Effects of the Tobacco Defensin NaD1” (Antibiotics, 2024)", "key": {"[1]": {"system": "Candida albicans ATCC 18804", "assay": "Antifungal microdilution assay with or without LPS or zymosan", "assay_type": "cell-based", "procedure": "The antifungal assay was performed by the microdilution method using 96-well microplates as described. Briefly, C. albicans ATTC 18804 cells in stock were inoculated onto Sabouraud agar plates with 2% glucose and incubated for 24 h at 37 °C. After replating, cells were inoculated in Sabouraud broth and cultured at 37 °C for 2 h. The cell concentration was determined using a LUNA-II cell counter (Logos Biosystems, Anyang-si, Republic of Korea). Yeast cells in Sabouraud broth diluted to concentration of 4 × 10^4 cells/mL were mixed with equal volumes of serial two-fold dilutions of the peptides in water and the plates were incubated at 30 °C for 24 h. The final peptide concentrations in the wells were 25, 12.5, 6.25, 3.13, 1.56, 0.78 and 0.39 μM. Controls without peptides were also tested. […] Yeast growth was assessed using an inverted light microscope and also by measuring absorbance at 630 nm. The minimum inhibitory concentrations IC50 and MIC were defined as the lowest peptide concentrations inhibiting fungal growth by at least 50 and 100%, respectively. […] The MFCs corresponded to the minimal peptide concentration, in which no colony growth was observed.\nTo estimate the effects of LPS and zymosan on the antifungal activity of NaD1 and LL-37, these PAMPs were added in culture media at concentrations of 10, 40 and 100 μg/mL [39, 40]. All of the experiments were performed twice in triplicate."}, "primary monocytes": {"system": "primary monocytes", "assay": "Multiplex xMAP assessment of cytokine production by primary monocytes", "assay_type": "cell-based, human", "details": "monocytes + 2 μM NaD1, 24 h", "excerpt": "Peripheral blood mononuclear cells (PBMCs) from healthy donors were purchased from American Type Culture Collection (ATCC PCS-800-011). Primary monocytes were isolated from PBMCs by adherence to the plastic surface. For that, PBMCs were thawed, resuspended in RPMI-1640 culture medium (Corning, Corning, NY, USA) without serum at a concentration of 2 × 10^6 cells/mL, seeded into the wells of a 24-well plate and placed in a humidified CO2-intubator (CellXpert C170i, Eppendorf, Hamburg, Germany) for 1 h. After that, non-adherent cells were removed from the wells and attached monocytes were thoroughly washed with PBS and cultured in a CO2-intubator in complete RPMI-1640 containing 10% human serum (HS Type AB, Capricorn Scientific, Ebsdorfergrund, Germany) and 1×antibiotic-antimycotic (1×AA) solution (Sigma, St. Louis, MO, USA).\nFor the study of the immunomodulatory properties of NaD1, monocytes and immature dendritic cells (moDC) were seeded into the wells of a 24-well plate at densities of 4 × 10^5 and 1.3 × 10^5 cells per well, respectively, in complete RPMI-1640 with 10% HS and AA solution. Then, 24 h later, the culture medium was replaced by a fresh one either with 2 μM NaD1 for stimulation of the cells or without if for the control wells. The cultures were kept in a humidified CO2-intubator for 24 h and then the samples of the culture media were taken and frozen.\nThe absolute levels of 48 cytokines, chemokines and growth factors were determined at a protein level by multiplex xMAP technology (Luminex, Austin, TX, USA). For this, a MILLIPLEX Human Panel A kit (HCYTA-60K-PX48, Merck, Darmstadt, Germany) was used and the following 48 analytes were evaluated in two biological replications: sCD40L, EGF, CCL11/Eotaxin-1, FGF-basic/FGF-2, Flt-3 ligand, CX3CL1/Fractalkine, G-CSF, GM-CSF, GROα, IFNα2, IFN-γ, IL-1α, IL-1β, IL-1RA, IL-2, IL-3, IL-4, IL-5, IL-6, IL-7, CXCL8/IL-8, IL-9, IL-10, IL-12(p40), IL-12(p70), IL-13, IL-15, IL-17A/CTLA8, IL-17E/IL-25, IL-17F, IL-18, IL-22, IL-27, CXCL10/IP-10, CCL2/MCP-1, CCL7/MCP-3, M-CSF, CCL22/MDC, CXCL9/MIG, CCL3/MIP-1α, CCL4/MIP-1β, PDGF-AA, PDGF-AB/BB, CCL5/RANTES, TGF-α, TNF-α, TNF-β and VEGF-A. The fluorescent data were obtained on a MAGPIX system (Merck) operated with xPONENT 4.2 software (Merck). Final analysis was performed in MILLIPLEX Analyst v5.1 software (Merck)."}}, "note": "Ends that are not written are not given here."}
{"substance": "NaD1: Recombinant tobacco floral defensin NaD1 (UNIPROT Q8GTM0), obtained by heterologous expression in E. coli; FITC-labeled in the permeability assay (RECKTESNTFPGICITKPPCRKACISEKFTDGHCSKILRRCLCTKPC; cysteine pairing not given here; also: FITC label; UniProt Q8GTM0 26-72, looked up)", "values": [{"measurement": "IC50", "setting": "[1]; 10 μg/mL LPS", "value": "3.12 to 6.25", "unit": "µM"}, {"measurement": "MFC", "setting": "[1]; 10 μg/mL LPS", "value": 12.5, "unit": "µM"}, {"measurement": "MIC", "setting": "[1]; 10 μg/mL LPS", "value": 6.25, "unit": "µM"}, {"measurement": "IC50", "setting": "[1]; 10 μg/mL Zymosan", "value": "3.12 to 6.25", "unit": "µM"}, {"measurement": "MFC", "setting": "[1]; 10 μg/mL Zymosan", "value": 12.5, "unit": "µM"}, {"measurement": "MIC", "setting": "[1]; 10 μg/mL Zymosan", "value": 6.25, "unit": "µM"}, {"measurement": "IC50", "setting": "[1]; 40 μg/mL LPS", "value": "3.12 to 6.25", "unit": "µM"}, {"measurement": "MFC", "setting": "[1]; 40 μg/mL LPS", "value": 12.5, "unit": "µM"}, {"measurement": "MIC", "setting": "[1]; 40 μg/mL LPS", "value": 6.25, "unit": "µM"}, {"measurement": "IC50", "setting": "[1]; 40 μg/mL Zymosan", "value": "3.12 to 6.25", "unit": "µM"}, {"measurement": "MFC", "setting": "[1]; 40 μg/mL Zymosan", "value": 25, "unit": "µM"}, {"measurement": "MIC", "setting": "[1]; 40 μg/mL Zymosan", "value": 6.25, "unit": "µM"}, {"measurement": "IC50", "setting": "[1]; 100 μg/mL LPS", "value": "3.12 to 6.25", "unit": "µM"}, {"measurement": "MFC", "setting": "[1]; 100 μg/mL LPS", "value": 12.5, "unit": "µM"}, {"measurement": "MIC", "setting": "[1]; 100 μg/mL LPS", "value": 12.5, "unit": "µM"}, {"measurement": "IC50", "setting": "[1]; 100 μg/mL Zymosan", "value": "3.12 to 6.25", "unit": "µM"}, {"measurement": "MFC", "setting": "[1]; 100 μg/mL Zymosan", "value": 25, "unit": "µM"}, {"measurement": "MIC", "setting": "[1]; 100 μg/mL Zymosan", "value": 6.25, "unit": "µM"}, {"measurement": "MIC", "setting": "[1]; without PAMP, Sabouraud broth, 30 °C, 24 h, 100% growth inhibition", "value": 6.25, "unit": "µM"}, {"measurement": "IC50", "setting": "[1]; without PAMP, Sabouraud broth, 30 °C, 24 h, lowest concentration inhibiting growth by at least 50%, twice in triplicate", "value": "3.12 to 6.25", "unit": "µM"}, {"measurement": "MFC", "setting": "[1]; without PAMP, plating on Sabouraud agar, 37 °C, 24 h, no colony growth", "value": 12.5, "unit": "µM"}, {"measurement": "IL-2 absolute level", "setting": "primary monocytes; control 0.36", "value": 0.51, "unit": "pg/mL"}, {"measurement": "TGF-a absolute level", "setting": "primary monocytes; control 0.73", "value": 0.73, "unit": "pg/mL"}, {"measurement": "IFNg absolute level", "setting": "primary monocytes; control 0.81", "value": 1.13, "unit": "pg/mL"}, {"measurement": "IL-5 absolute level", "setting": "primary monocytes; control 0.87", "value": "<0.33↓ pg/ml"}, {"measurement": "IL-4 absolute level", "setting": "primary monocytes; control 1.25", "value": 1.44, "unit": "pg/mL"}, {"measurement": "IL-18 absolute level", "setting": "primary monocytes; control 1.81", "value": 2.95, "unit": "pg/mL"}, {"measurement": "TNFb absolute level", "setting": "primary monocytes; control 1.89", "value": 1.49, "unit": "pg/mL"}, {"measurement": "IL-12 (p40) absolute level", "setting": "primary monocytes; control 2.8", "value": 2.8, "unit": "pg/mL"}, {"measurement": "IL-15 absolute level", "setting": "primary monocytes; control 4.96", "value": 4.19, "unit": "pg/mL"}, {"measurement": "IL-9 absolute level", "setting": "primary monocytes; control 5.17", "value": 3.78, "unit": "pg/mL"}, {"measurement": "IL-1a absolute level", "setting": "primary monocytes; control 5.33", "value": 7.2, "unit": "pg/mL"}, {"measurement": "IL-10 absolute level", "setting": "primary monocytes; control 6.18", "value": 6.66, "unit": "pg/mL"}, {"measurement": "G-CSF absolute level", "setting": "primary monocytes; control 10.38", "value": 6.59, "unit": "pg/mL"}, {"measurement": "IL-13 absolute level", "setting": "primary monocytes; control 10.99", "value": 5.29, "unit": "pg/mL"}, {"measurement": "IL-1b absolute level", "setting": "primary monocytes; control 12.11", "value": 12.11, "unit": "pg/mL"}, {"measurement": "EGF absolute level", "setting": "primary monocytes; control 12.18", "value": 14.11, "unit": "pg/mL"}, {"measurement": "IFNa2 absolute level", "setting": "primary monocytes; control 13.22", "value": 18.46, "unit": "pg/mL"}, {"measurement": "IL-6 absolute level", "setting": "primary monocytes; control 27.82", "value": 26.88, "unit": "pg/mL"}, {"measurement": "MIP-1a absolute level", "setting": "primary monocytes; control 29.35", "value": 27.88, "unit": "pg/mL"}, {"measurement": "MIP-1b absolute level", "setting": "primary monocytes; control 29.57", "value": 34.19, "unit": "pg/mL"}, {"measurement": "PDGF-AA absolute level", "setting": "primary monocytes; control 35.56", "value": 43.29, "unit": "pg/mL"}, {"measurement": "Fractalkine absolute level", "setting": "primary monocytes; control 41.58", "value": 32.26, "unit": "pg/mL"}, {"measurement": "FGF-2 absolute level", "setting": "primary monocytes; control 45.68", "value": 71.22, "unit": "pg/mL"}, {"measurement": "VEGFa absolute level", "setting": "primary monocytes; control 54.1", "value": 52.47, "unit": "pg/mL"}, {"measurement": "TNFa absolute level", "setting": "primary monocytes; control 77.73", "value": 79.94, "unit": "pg/mL"}, {"measurement": "MCP-1 absolute level", "setting": "primary monocytes; control 82.06", "value": 75.95, "unit": "pg/mL"}, {"measurement": "MCP-3 absolute level", "setting": "primary monocytes; control 120.38", "value": 119.63, "unit": "pg/mL"}, {"measurement": "IL-27 absolute level", "setting": "primary monocytes; control 121.25", "value": 94.48, "unit": "pg/mL"}, {"measurement": "RANTES absolute level", "setting": "primary monocytes; control 184.29", "value": 402.83, "unit": "pg/mL"}, {"measurement": "IL-1RA absolute level", "setting": "primary monocytes; control 204.3", "value": 204.3, "unit": "pg/mL"}, {"measurement": "IP-10 absolute level", "setting": "primary monocytes; control 290.24", "value": 390.23, "unit": "pg/mL"}, {"measurement": "GROa absolute level", "setting": "primary monocytes; control 342.86", "value": 261.06, "unit": "pg/mL"}, {"measurement": "MDC absolute level", "setting": "primary monocytes; control 879.89", "value": 759.82, "unit": "pg/mL"}, {"measurement": "PDGF-AB/BB absolute level", "setting": "primary monocytes; control 984.71", "value": 1457, "unit": "pg/mL"}, {"measurement": "MIG absolute level", "setting": "primary monocytes; control 1021", "value": 1301, "unit": "pg/mL"}, {"measurement": "IL-8 absolute level", "setting": "primary monocytes; control 9181", "value": 6023, "unit": "pg/mL"}, {"measurement": "IL-7 absolute level", "setting": "primary monocytes; control <0.32", "value": "<0.32↓ pg/ml"}, {"measurement": "FLT-3L absolute level", "setting": "primary monocytes; control <0.61", "value": 0.69, "unit": "pg/mL"}, {"measurement": "IL-3 absolute level", "setting": "primary monocytes; control <0.77", "value": "<0.77↓ pg/ml"}, {"measurement": "IL-17A absolute level", "setting": "primary monocytes; control <1.00", "value": "<1.00↓ pg/ml"}, {"measurement": "GM-CSF absolute level", "setting": "primary monocytes; control <1.30", "value": "<1.30↓ pg/ml"}, {"measurement": "IL-12 (p70) absolute level", "setting": "primary monocytes; control <1.79", "value": "<1.79↓ pg/ml"}, {"measurement": "Eotaxin absolute level", "setting": "primary monocytes; control <3.80", "value": "<3.80↓ pg/ml"}, {"measurement": "IL-22 absolute level", "setting": "primary monocytes; control <9.00", "value": "<9.00↓ pg/ml"}, {"measurement": "IL-17F absolute level", "setting": "primary monocytes; control <16.98", "value": "<16.98↓ pg/ml"}, {"measurement": "M-GSF absolute level", "setting": "primary monocytes; control <23.97", "value": "<23.97↓ pg/ml"}, {"measurement": "IL-17E/IL-25 absolute level", "setting": "primary monocytes; control <25.82", "value": "<25.82↓ pg/ml"}, {"measurement": "sCD40L absolute level", "setting": "primary monocytes; two biological replications, untreated control 151.36", "value": 151.36, "unit": "pg/mL"}]}
